Reference: patent US20050090505A1, “Methods of reducing risk of infection from pathogens” (priority 2003, published 2005)
Structures can show the parent of a compound that is named as a salt. Where two headings read alike, the source gives them in different places.

Molecular target: T1, airway epithelial sodium currents (sodium channel) (UniProt A0A8I3MKE6+A0A8I3Q679+Q95165)
T1 sequence (A0A8I3MKE6 1-646): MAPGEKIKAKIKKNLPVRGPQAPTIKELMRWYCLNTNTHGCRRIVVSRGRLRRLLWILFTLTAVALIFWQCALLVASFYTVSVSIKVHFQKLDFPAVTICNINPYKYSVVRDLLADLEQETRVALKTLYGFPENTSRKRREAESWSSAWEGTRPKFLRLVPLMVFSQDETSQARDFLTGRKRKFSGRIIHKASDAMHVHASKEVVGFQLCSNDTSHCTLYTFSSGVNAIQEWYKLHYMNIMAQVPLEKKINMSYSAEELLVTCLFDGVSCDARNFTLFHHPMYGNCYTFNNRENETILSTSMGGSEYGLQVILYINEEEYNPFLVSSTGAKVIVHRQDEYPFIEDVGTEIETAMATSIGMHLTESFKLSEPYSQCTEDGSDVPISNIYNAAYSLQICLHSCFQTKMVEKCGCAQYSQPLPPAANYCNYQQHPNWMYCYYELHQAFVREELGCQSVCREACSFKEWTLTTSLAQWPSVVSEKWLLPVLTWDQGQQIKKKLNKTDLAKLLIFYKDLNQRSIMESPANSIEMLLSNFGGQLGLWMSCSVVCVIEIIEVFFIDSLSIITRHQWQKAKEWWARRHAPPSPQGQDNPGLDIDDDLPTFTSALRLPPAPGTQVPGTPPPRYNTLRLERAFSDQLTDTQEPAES
T1 sequence (A0A8I3Q679 1-649): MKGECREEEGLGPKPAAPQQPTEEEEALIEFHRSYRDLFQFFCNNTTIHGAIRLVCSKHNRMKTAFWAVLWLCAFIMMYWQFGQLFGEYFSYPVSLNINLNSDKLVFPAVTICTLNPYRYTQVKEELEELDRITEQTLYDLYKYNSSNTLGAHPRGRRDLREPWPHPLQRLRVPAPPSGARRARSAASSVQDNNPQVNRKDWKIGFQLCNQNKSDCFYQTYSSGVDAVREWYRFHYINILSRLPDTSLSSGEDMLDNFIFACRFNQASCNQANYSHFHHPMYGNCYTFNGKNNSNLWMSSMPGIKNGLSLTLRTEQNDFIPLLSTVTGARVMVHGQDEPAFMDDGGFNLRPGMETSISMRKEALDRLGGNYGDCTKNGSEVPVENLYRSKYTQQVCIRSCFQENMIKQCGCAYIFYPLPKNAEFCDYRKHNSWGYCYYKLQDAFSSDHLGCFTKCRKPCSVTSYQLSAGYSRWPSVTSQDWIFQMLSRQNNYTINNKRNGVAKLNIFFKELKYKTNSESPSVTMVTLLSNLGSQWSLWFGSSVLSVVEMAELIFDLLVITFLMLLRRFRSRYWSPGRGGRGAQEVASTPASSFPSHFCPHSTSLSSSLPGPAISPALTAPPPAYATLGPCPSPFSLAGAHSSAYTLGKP
T1 sequence (Q95165 1-641): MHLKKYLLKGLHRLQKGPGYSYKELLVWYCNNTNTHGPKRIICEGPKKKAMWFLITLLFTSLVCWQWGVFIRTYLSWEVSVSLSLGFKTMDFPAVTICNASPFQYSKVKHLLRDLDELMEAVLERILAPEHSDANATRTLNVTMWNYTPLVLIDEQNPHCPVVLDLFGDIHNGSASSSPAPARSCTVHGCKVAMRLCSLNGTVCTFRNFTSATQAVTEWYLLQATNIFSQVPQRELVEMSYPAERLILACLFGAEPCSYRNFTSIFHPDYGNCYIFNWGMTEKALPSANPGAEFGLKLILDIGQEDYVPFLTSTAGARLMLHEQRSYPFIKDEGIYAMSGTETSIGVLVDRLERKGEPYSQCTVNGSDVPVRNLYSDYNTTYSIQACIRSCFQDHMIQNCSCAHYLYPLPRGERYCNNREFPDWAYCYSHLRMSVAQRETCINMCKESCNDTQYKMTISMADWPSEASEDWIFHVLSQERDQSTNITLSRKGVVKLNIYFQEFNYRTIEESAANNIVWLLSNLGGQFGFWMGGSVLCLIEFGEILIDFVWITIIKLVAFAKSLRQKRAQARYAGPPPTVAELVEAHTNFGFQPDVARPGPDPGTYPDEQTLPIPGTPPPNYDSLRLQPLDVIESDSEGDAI
Assay: Sodium channel blocking activity: inhibition of short circuit current (ISC) in airway epithelial monolayers mounted in Ussing chambers
Assay type: cell-based, human, dog, sheep or rodent
Details: for Fold Amiloride** (PSA 4022 = 100): relative potency for PSA 4022 = 100 using EC50 from PSA 4022 in same run; for EC50: mean ± spread
Experimental: In Vitro Measure of Sodium Channel Blocking Activity and Reversibility
One assay used to assess mechanism of action and/or potency of the compounds of the present invention involves the determination of lumenal drug inhibition of airway epithelial sodium currents measured under short circuit current (ISC) using airway epithelial monolayers mounted in Ussing chambers. Cells obtained from freshly excised human, dog, sheep or rodent airways are seeded onto porous 0.4 micron Snapwell™ Inserts (CoStar), cultured at air-liquid interface (ALI) conditions in hormonally defined media, and assayed for sodium transport activity (ISC) while bathed in Krebs Bicarbonate Ringer (KBR) in Using chambers. All test drug additions are to the lumenal bath with half-log dose addition protocols (from 1×10^−11 M to 3×10^−5 M), and the cumulative change in ISC (inhibition) recorded. All drugs are prepared in dimethyl sulfoxide as stock solutions at a concentration of 1×10^−2 M and stored at −20° C. Eight preparations are typically run in parallel; two preparations per run incorporate amiloride and/or benzamil as positive controls. After the maximal concentration (5×10^−5 M) is administered, the lumenal bath is exchanged three times with fresh drug-free KBR solution, and the resultant ISC measured after each wash for approximately 5 minutes in duration. Reversibility is defined as the percent return to the baseline value for sodium current after the third wash. All data from the voltage clamps are collected via a computer interface and analyzed off-line.
Dose-effect relationships for all compounds are considered and analyzed by the Prism 3.0 program. IC50 values, maximal effective concentrations, and reversibility are calculated and compared to amiloride and benzamil as positive controls.

[1] = Selected Alaphatic Pyrazinoylguanidines (Formula II)
[2] = Selected Cyclic Pyrazinoylguanidines (Formula III)

Row | Structure (SMILES) | Fold Amiloride** (PSA 4022 = 100) (Alaphatic Pyrazinoylguanidines) | EC50 [1] [nM] | also measured
1 | CN(C)C(=O)COc1ccc(CCCCNC(=N)NC(=O)c2nc(Cl)c(N)nc2N)cc1 [compound 16313, 2-(4-{4-[N-(3,5-diamino-6-chloropyrazine-2-carbonyl)guanidino]-butyl}phenoxy)-N,N-dimethylacetamide hydrochloride] |  |  | Fold Amiloride** (PSA 4022 = 100) (Capped Pyrazinoylguanidines): 41 ± 7
2 | N=C(NCCCCc1ccc(OCC(=O)NCC(N)=O)cc1)NC(=O)c1nc(Cl)c(N)nc1N [compound 16314, N-carbamoylmethyl-2-(4-{4-[N′-(3,5-diamino-6-chloropyrazine-2-carbonyl)guanidino]butyl}phenoxy)acetamide] |  |  | Fold Amiloride** (PSA 4022 = 100) (Capped Pyrazinoylguanidines): 41 ± 6
3 | N=C(NCCCCc1ccc(OCC(=O)Nc2ncc[nH]2)cc1)NC(=O)c1nc(Cl)c(N)nc1N [compound 16437, 2-(4-{4-[N′-(3,5-diamino-6-chloropyrazine-2-carbonyl)guanidino]-butyl}phenoxy)-N-(1H-imidazol-2-yl)acetamide dihydrochloride] |  |  | Fold Amiloride** (PSA 4022 = 100) (Capped Pyrazinoylguanidines): 77 ± 53
4 | N=C(NCCCCCCN)NC(=O)c1nc(Cl)c(N)nc1N [compound 18706, N-(6-aminohexyl)-N′-(3,5-diamino-6-chloropyrazine-2-carbonyl)guanidine dihydrochloride] | 4 ± 1 | 254 ± 118 | 
5 | N=C(N)NCCCCCCCCCNC(=N)NC(=O)c1nc(Cl)c(N)nc1N [compound 19006, N-{9-[N′-(3,5-diamino-6-chloropyrazine-2-carbonyl)guanidino]nonyl}guanidine dihydrochloride] | 11 ± 2 | 60 ± 15 | 
6 | N=C(N)NCCCCCCCNC(=N)NC(=O)c1nc(Cl)c(N)nc1N [compound 19155, N-{7-[N′-(3,5-diamino-6-chloropyrazine-2-carbonyl)guanidino]heptyl}guanidine dihydrochloride] | 8 ± 7 | 81 ± 45 | 
7 | N=C(NCCCCCCCCCN)NC(=O)c1nc(Cl)c(N)nc1N [compound 19335, N-(9-aminononyl)-N′-(3,5-diamino-6-chloropyrazine-2-carbonyl)-guanidine dihydrochloride] | 19 ± 7 |  | 
8 | N=C(NCCCCCCCCN)NC(=O)c1nc(Cl)c(N)nc1N [compound 19336, N-(8-aminooctyl)-N′-(3,5-diamino-6-chloropyrazine-2-carbonyl)-guanidine dihydrochloride] | 12 ± 3 | 76 ± 18 | 
9 | N=C(NCCCCCCCCCCN)NC(=O)c1nc(Cl)c(N)nc1N [compound 19487, N-(10-aminodecyl)-N′-(3,5-diamino-6-chloropyrazine-2-carbonyl)-guanidine dihydrochloride] | 37 ± 1 | 25 ± 11 | 
10 | N=C(N)NCCCCCCCCNC(=N)NC(=O)c1nc(Cl)c(N)nc1N [compound 19604, N-{8-[N′-(3,5-diamino-6-chloropyrazine-2-carbonyl)guanidino]octyl}-guanidine dihydrochloride] | 63 ± 61 | 25 ± 27 | 
11 | N=C(N)NCCCCCCCCCCNC(=N)NC(=O)c1nc(Cl)c(N)nc1N [compound 23608, N-{10-[N′-(3,5-diamino-6-chloropyrazine-2-carbonyl)guanidino]-decyl}guanidine dihydrochloride] | 41 ± 29 | 17 ± 8 | 
12 | N=C(NCCCCCCCCCCCCN)NC(=O)c1nc(Cl)c(N)nc1N [compound 23609, N-(12-aminododecyl)-N′-(3,5-diamino-6-chloropyrazine-2-carbonyl)-guanidine dihydrochloride] | 66 ± 36 | 13 ± 7 | 
13 | N=C(NCCCCCCCCCCCN)NC(=O)c1nc(Cl)c(N)nc1N [compound 23682, N-(11-aminoundecyl)-N′-(3,5-diamino-6-chloropyrazine-2-carbonyl)guanidine dihydrochloride] | 51 ± 15 | 12 ± 3 | 
14 | N=C(N)NCCCCCCCCCCCCNC(=N)NC(=O)c1nc(Cl)c(N)nc1N [compound 23683, N-{12-[N′-(3,5-diamino-6-chloropyrazine-2-carbonyl)guanidino]dodecyl)guanidine dihydrochloride] | 68 ± 48 | 41 ± 68 | 
15 | N=C(N)NCCCCCCCCCCCNC(=N)NC(=O)c1nc(Cl)c(N)nc1N [compound 23991, N-{11-[N′-(3,5-diamino-6-chloropyrazine-2-carbonyl)guanidino]-undecyl}guanidine dihydrochloride] | 20 ± 12 | 64 ± 77 | 
16 | N=C(NCCCCc1ccc(C[C@@H](N)CC(=O)O)cc1)NC(=O)c1nc(Cl)c(N)nc1N [compound 24407] |  |  | Fold Amiloride** (PSA 4022 = 100) (Capped Pyrazinoylguanidines): 23 ± 4
17 | N=C(NCCCCC1CCN(CCO)CC1)NC(=O)c1nc(Cl)c(N)nc1N [compound 25193, N-(3,5-diamino-6-chloropyrazine-2-carbonyl)-N′-{4-[1-(2-hydroxyethyl)piperidin-4-yl]butyl}guanidine dihydrochloride] |  |  | Fold Amiloride** (PSA 4022 = 100) (Cyclic Pyrazinoylguanidines): 8 ± 3; EC50 [2]: 99 ± 14 nM
18 | N=C(NCCCCC1CCN(CCCO)CC1)NC(=O)c1nc(Cl)c(N)nc1N [compound 25310, N-(3,5-Diamino-6-chloropyrazine-2-carbonyl)-N′-{4-[1-(3-hydroxypropyl)piperidin-4-yl]butyl}guanidine dihydrochloride] |  |  | Fold Amiloride** (PSA 4022 = 100) (Cyclic Pyrazinoylguanidines): 5 ± 2; EC50 [2]: 169 ± 47 nM
19 | CC(C)(C)OC(=O)NCCCN1CCC(CCCCNC(N)=NC(=O)c2nc(Cl)c(N)nc2N)CC1 [compound 25452, [3-(4-{4-[N′-(3,5-diamino-6-chloropyrazine-2-carbonyl)guanidino]butyl}piperidin-1-yl)propyl]carbamic acid tert-butyl ester] |  |  | Fold Amiloride** (PSA 4022 = 100) (Cyclic Pyrazinoylguanidines): 8 ± 1; EC50 (Selected Cyclic Pyrazinoylguanidines (Formula III), read-out: EC50): 60 ± 6 nM
